Source: patent publication US8629277B2, “Styrenyl 1,2,4-oxadiazole compounds” (Piramal Enterprises Limited, priority 2010, dated 2014)

Tests used:
Ba/F3 Bcr-Abl/M351T = target: T1, Ba/F3 Bcr-Abl/M351T (Homo sapiens, UniProt P00519, M351T, cells depend on it); assay: Cell proliferation and cytotoxicity CCK-8 assay; format: cell-based; details: mouse, 72 h
T1 construct: fused on or other part: P11274 (Breakpoint cluster region protein)

Ba/F3 Bcr-Abl/E255K = target: T2, Ba/F3 Bcr-Abl/E255K (Homo sapiens, UniProt P00519, E255K, cells depend on it); assay: Cell proliferation and cytotoxicity CCK-8 assay; format: cell-based; details: mouse, 72 h
T2 construct: fused on or other part: P11274 (Breakpoint cluster region protein)

Ba/F3 Bcr-Abl/Q252H = target: T3, Ba/F3 Bcr-Abl/Q252H (Homo sapiens, UniProt P00519, Q252H, cells depend on it); assay: Cell proliferation and cytotoxicity CCK-8 assay; format: cell-based; details: mouse, 72 h
T3 construct: fused on or other part: P11274 (Breakpoint cluster region protein)

K562 = assay: Flow cytometric analysis of apoptosis (PI staining); format: cell-based, human
Experimental: Effect of the Compounds of Present Invention in Bcr-Abl Mutated Imatinib Mesylate-Resistant Cell Lines on Cell Cycle and Apoptosis Using Flow Cytometry.
The assay was carried out as in reference, FEBS Letters, 2007, 581, 7, 1329-1334. […] At the end of incubation, cells were harvested by centrifugation at 1000 rpm for 10 minutes, washed with phosphate buffered saline (PBS) and gradually resuspended in 70% ice-cold ethanol (to facilitate the permeablisation of stains). Cell suspension was stored for a minimum period of 4 h before staining with propidium iodide (PI). Fixed cells were stained with PI (80 μg/mL) in presence of RNase A (50 μg/mL), and read on Becton Dickinson FACS Calibur (USA) for cell cycle analysis.

TGFβ = TGFβ assay, Western blot analysis in Ba/F3 Bcr-Abl/T315I cells; format: cell-based; details: T315I cell line, 3×IC50, 72 h, FIG. 3
Experimental: TGFβ is a prime candidate for maintaining the CML stem cells in a non-cycling state. […] TGFβ plays a vital role in the preservation of the malignant progenitor population, and is partially responsible for the resistance to treatments targeting Bcr-Abl observed in a proportion of CML patients.
The Western Blot assay was carried out as in reference, Analytical Biochemistry, 1981, 112, 2, 195-203.
Western blot analysis was performed to decipher the mechanism of action of compounds of the present invention. […] The cells were incubated in a humidified incubator for 2-4 h at 37° C. […] Cells were then incubated for 72 h. Following the incubation, cells were harvested, washed with ice-cold phosphate buffered saline (PBS) and lysed with cold Cell Lytic buffer (Sigma Aldrich) supplemented with complete protease inhibitor cocktail (Roche, Germany). The protein extracts were obtained after centrifugation at 14,000 g at 4° C. (30 min). Aliquots of the resulting extracts were analyzed for their protein content using Bradford Reagent (Sigma) as per the manufacturer's instructions. In all the experiments, equivalent amounts of protein (70 μg) were loaded on 7.5%-10% Tris-glycine gels and resolved at 100 V for 2 h in a buffered solution (24.9 mM Tris base, 250 mM glycine, 0.1% SDS (sodium dodecyl sulfate)). […]

Ba/F3 Bcr-Abl/Y253H = target: T4, Ba/F3 Bcr-Abl/Y253H (Homo sapiens, UniProt P00519, Y253H, cells depend on it); assay: Cell proliferation and cytotoxicity CCK-8 assay; format: cell-based; details: mouse, 72 h
T4 construct: fused on or other part: P11274 (Breakpoint cluster region protein)

Ba/F3 Bcr-Abl/WT = target: T5, Ba/F3 Bcr-Abl/WT (Homo sapiens, UniProt P00519); assay: Cell proliferation and cytotoxicity CCK-8 assay; format: cell-based; details: imatinib sensitive cell line; CCK-8, 72 h; read-out: Inhibitory concentrations (IC50) Ba/F3 Bcr-Abl/WT
T5 construct: fused on or other part: P11274 (Breakpoint cluster region protein)
Text: Cell Proliferation and Cytotoxicity CCK-8 Assay:
Cell Counting Kit-8 (CCK-8) assay is a sensitive colorimetric assay for the determination of number of viable cells in cell proliferation and cytotoxicity assays. Cell Counting Kit-8 (CCK-8) utilizes Dojindo's highly water-soluble tetrazolium salt. The amount of the formazan dye generated by dehydrogenases in cells is directly proportional to the number of living cells.
The cell lines described in Table 1 were used to test the antiproliferative activity of the compounds of the present invention.
Cells were seeded at a density of ˜5×10^3 per well (0.09 mL) in a transparent 96-well tissue culture plate (NUNC, USA) and allowed to incubate at 37° C., 5% CO2 incubator for 2-6 h. Different concentrations of compounds of the present invention were added to the wells of the culture plate in triplicate. […] Plates were further incubated in an incubator at 37° C. in presence of 5% CO2 for 72 h. 10 μL of the CCK-8 solution was added to each well and plate was incubated for 1-4 h in the incubator. The absorbance was measured at 450 nm using a microplate reader. The percent inhibition and IC50 were calculated in comparison with control values.

Row | SMILES | GI50 (Ba/F3 Bcr-Abl/M351T) [µM] | GI50 (Ba/F3 Bcr-Abl/E255K) [µM] | GI50 (Ba/F3 Bcr-Abl/Q252H) [µM] | % Apoptosis by Flow Cytometry Analysis (K562; 3X IC50, 96 h time point) [%] | % Apoptosis by Flow Cytometry Analysis (K562; 5X IC50, 48 h time point) [%] | % Apoptosis by Flow Cytometry Analysis (K562; 5X IC50, 96 h time point) [%] | p-Smad2 and p-Smad3, effector target molecules of TGFβ signaling (TGFβ) | GI50 (Ba/F3 Bcr-Abl/Y253H) [nM] | GI50 (Ba/F3 Bcr-Abl/WT) [µM]
1 | CCCc1noc(C=Cc2ccc(O)c(O)c2)n1 [Compound of Example 3, 4-[2-(3-Propyl-[1,2,4]oxadiazol-5-yl)-vinyl]-benzene-1,2-diol] | 5.7 ± 1.7 | 5.4 | 2.6 ± 0.84 | 5 | 12.7 | 3.4 | strongly downregulated | 1700 ± 780 | < 10
2 | Oc1ccc(C=Cc2nc(Cc3ccccc3)no2)cc1O [Compound of Example 4, 4-[2-(3-Benzyl-[1,2,4]oxadiazol-5-yl)-vinyl]-benzene-1,2-diol] | 7.5 ± 0.7 | > 10 | 3.65 ± 0.65 | 10 | 12.2 | 5.2 | strongly downregulated | 2500 ± 750 | < 10
